{"source": "patent US9944583B2", "about": "“Methods for ameliorating and preventing central nervous system inflammation” (THE REGENTS OF THE UNIVERSITY OF CALIFORNIA, priority 2007, dated 2018)", "key": {"[1]": {"tested_on": "primary neuronal cultures", "test": "DHE oxidation (superoxide and/or hydrogen peroxide production) in primary neuronal cultures exposed to ketamine", "assay_type": "cell-based, mouse"}, "PV-interneurons": {"tested_on": "PV-interneurons", "test": "parvalbumin and GAD67 immunoreactivity in PV-interneurons in primary neuronal cultures"}, "[2]": {"details": "in vivo; cited from earlier work"}, "IL-6 receptors": {"molecular_target": "T1, IL-6 receptors (Homo sapiens, UniProt P08887)", "T1 construct": "host or cells: patients with rheumatoid arthritis / juvenile idiopathic arthritis", "T1 sequence (P08887 20-468)": "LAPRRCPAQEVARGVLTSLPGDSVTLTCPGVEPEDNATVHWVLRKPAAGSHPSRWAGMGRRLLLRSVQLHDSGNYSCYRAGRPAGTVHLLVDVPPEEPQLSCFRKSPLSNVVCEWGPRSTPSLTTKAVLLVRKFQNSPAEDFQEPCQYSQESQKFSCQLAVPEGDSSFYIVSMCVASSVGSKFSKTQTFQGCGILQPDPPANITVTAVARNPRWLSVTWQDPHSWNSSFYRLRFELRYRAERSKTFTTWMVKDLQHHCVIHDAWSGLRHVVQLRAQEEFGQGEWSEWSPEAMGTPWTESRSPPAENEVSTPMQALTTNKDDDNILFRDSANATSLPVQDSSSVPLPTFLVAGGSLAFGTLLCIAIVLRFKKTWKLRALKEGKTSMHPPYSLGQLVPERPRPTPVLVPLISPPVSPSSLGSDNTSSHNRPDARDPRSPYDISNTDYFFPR", "details": "Phase I and II clinical trials, cited from earlier work"}, "NFkB": {"tested_on": "NFkB", "test": "IL-6 induced superoxide production (DHE oxidation) in neuronal cultures with NFkB inhibitor", "assay_type": "cell-based", "details": "assessed 4 hours later"}, "Nox2": {"tested_on": "Nox2", "test": "Nox expression in primary neuronal cultures (immunocytochemistry, Western blot)"}, "Nox2, Nox4, p22phox": {"tested_on": "Nox2, Nox4, p22phox", "test": "Western blot of Nox proteins in brain membranes after in vivo ketamine", "details": "ketamine 30 mg/kg i.p., two consecutive days"}, "[3]": {"tested_on": "synaptosomal mitochondria", "test": "respiration of synaptosomal mitochondria (oximetry)", "details": "after in vivo ketamine 30 mg/kg, two days"}, "primary cultures": {"tested_on": "primary cultures", "details": "ketamine 0.5 μM, 1 h and 3 h"}, "IL-6 mRNA": {"tested_on": "IL-6 mRNA", "test": "cytokine mRNA by RT-PCR in ketamine-treated primary neuronal cultures", "details": "ketamine 0.5 μM, up to 24 h"}, "[4]": {"tested_on": "PV-interneurons in mouse prefrontal cortex", "test": "two-day ketamine treatment of mice: oxidized DHE, parvalbumin and GAD67 in prefrontal cortex", "assay_type": "in vivo", "procedure": "Animals and treatments. […] Male C57BL6 mice were obtained from Jackson Labs, Bar Harbor, Me., at 8-12 weeks and housed in our facility until 15 weeks when they were used for experiments. Ketamine (30 mg/kg) was applied intraperitoneally (IP) on two consecutive days at around 4 pm. DHE was applied 30 min after the last ketamine injection as described (19, 20). Briefly, two serial i.p. injections of freshly prepared dihydroethidium (27 mg/kg) are given at 30 minute intervals. Eighteen hours later, mice are anesthetized with inhaled halothane, and perfused intracardially with cold saline followed by 4% paraformaldehyde in PBS. The Nox inhibitor, apocynin (5 mg/kg/day) was given in the drinking water for a total of seven days, with an assumed intake of […] H2O/mouse/day, and ketamine was applied on the last two days. […] All animal studies were approved by the Animal Care Program at the University of California, San Diego, and are in accordance the PHS Guide for the Care and Use of Laboratory Animals, USDA Regulations, and the AVMA Panel on Euthanasia.\nImmunohistochemistry: Brains were frontally sliced in a vibratome into 50 μm coronal sections encompassing the prefrontal cortex region (from Bregma 2.0 to 1.3). Sequential slices were processed for floating-section double immunohistochemistry for the detection of parvalbumin and GAD67. Antigen retrieval was performed by incubation of the slices in 1% sodium borohydride for 15 min as described (see reference 34, below), followed by washing in PBS and incubation in 10% normal goat serum in PBS for 16 h at 4° C. Primary antibodies (Calbindin: 1:5000: Calretinin: 1:2000; Parvalbumin: 1:3000, all rabbit polyclonals from Swant, Bellinzona, Switzerland. GAD67: 1:1000, from Chemicon-Millipore, Temecula, Calif.) were diluted in 2% normal goat serum in PBS and applied to the slices for 18 h at 4° C., after which slices were washed in PBS and incubated in a 1:1000 dilution of ALEXAFLUOR™ (Molecular Probes, Invitrogen, Carlsbad, Calif.) conjugated goat anti-rabbit (568) or goat anti-mouse (488) antibodies for 1 hr at room temperature (rt). Slices were washed in PBS and mounted sequentially in glass slides using […]™ (Vector Laboratories, Burlingame, Calif.), covered with a coverslip and allowed to dry for at least 24 h before confocal imaging.\nSix slices were analyzed per animal.\nAnalysis of superoxide and/or hydrogen peroxide production by confocal imaging of in vivo dihydroethidium (DHE) oxidation. Mice will be injected intraperitoneally (i.p.) with dihydroethidium."}, "[5]": {"tested_on": "PV-interneurons in mouse prefrontal cortex", "test": "two-day ketamine treatment of mice: oxidized DHE, parvalbumin and GAD67 in prefrontal cortex", "assay_type": "in vivo", "details": "24 h following a single ketamine exposure"}, "NADPH oxidase (Nox)": {"tested_on": "NADPH oxidase (Nox)", "test": "Nox activity in synaptosomes by NADPH-dependent oxygen consumption (oximetry)", "assay_type": "biochemical, mouse", "details": "ketamine 30 mg/kg in vivo on two consecutive days", "procedure": "Synaptosomal preparations. […] Mice were euthanized by exposure to a lethal dose of inhaled halothane, followed by cervical dislocation. Brains were rapidly removed, cortices dissected and homogenized in 10 volumes of ice-cold isolation buffer (0.32M sucrose, 1 mM EDTA, 10 mM Tris-HCl buffer, pH 7.4, 10 mM glucose). The homogenate was centrifuged at 3100 rpm for 3 min at 4° C., and the supernatant collected, and the pellet was re-homogenized in half the volume of isolation buffer and centrifuged again. Synaptosomal were then isolated as described (see reference 30, below) modified as follows, the pooled supernatants were mixed with PERCOLL™ (Sigma, St. Louis, Mo.) to a final concentration of 15%, and then layered onto a step gradient of 23% and 40% PERCOLL™, and centrifuged at 16,000 rpm for 5 minutes at 4° C. The uppermost band was extracted, rinsed in isolation buffer, centrifuged and resuspended in synaptosomal buffer (120 mM NaCl, 4.7 mM KCl, 2.2 mM CaCl2, 1.2 mM MgCl2, 25 mM HEPES, 1.2 mM MgSO4, 1.2 mM KH2PO4, 10 mM glucose).\nOxygen consumption studies (oximetry). O2 consumption studies on synaptosomes are carried out. […] Studies were carried out to optimize the concentration of synaptosomal protein required, and to confirm stability and viability of synaptosomes and their mitochondria for up to 6 h."}, "[6]": {"details": "2-day ketamine, saline 30.1±14.3"}, "[7]": {"details": "ketamine 30 mg/kg i.p., two consecutive days"}}, "note": "Entries after “also recorded” stand apart in the source; their conditions may differ."}
{"compound": "NCc1cc(=O)[nH]o1", "note": "[muscimol]", "values": [{"measurement": "effect on ketamine-mediated increase in oxidized DHE", "setting": "[1]; co-exposure with ketamine 0.5 μM 24 h, muscimol 10 μM, C3 20 μM, apocynin 0.5 mM", "result": "prevented; also recorded: complete block"}, {"measurement": "effect on ketamine-mediated loss of parvalbumin and GAD67 immunoreactivity in PV-interneurons", "setting": "PV-interneurons; co-exposure with ketamine 24 h, muscimol 10 μM, C3, apocynin 0.5 mM", "result": "prevented; also recorded: preservation"}]}
{"compound": "Tocilizumab: therapeutic humanized monoclonal antibody, specific antagonist for IL-6 receptors", "values": [{"measurement": "plasma half-life", "setting": "[2]", "result": "long plasma half-life"}, {"measurement": "rheumatoid arthritis disease activity", "setting": "IL-6 receptors; 2, 4, 5, 8 or 10 mg/kg, dose-dependent", "result": "reduced rheumatoid arthritis disease activity significantly"}, {"measurement": "safety and tolerability", "setting": "IL-6 receptors", "result": "generally safe and well tolerated"}]}
{"compound": "H2N-Ala-Ala-Val-Ala-Leu-Leu-Pro-Ala-Val-Leu-Leu-Ala-Leu-Leu-Ala-Pro-Val-Gln-Arg-Lys-Arg-Gn-Lvs-Leu-Met-Pro-OH (H-AAVALLPAVLLALLAPVQRKRQKLMP-OH) [SN50]", "values": [{"measurement": "effect on IL-6 induced superoxide production (DHE oxidation)", "setting": "NFkB", "result": "blocks"}]}
{"compound": "CNC1(c2ccccc2Cl)CCCCC1=O", "note": "(centres unmarked) [ketamine]", "values": [{"measurement": "oxidized DHE (neuronal superoxide and/or hydrogen peroxide production)", "setting": "[1]; ketamine 0.5 μM, 24 h", "result": "significant increase; also recorded: pronounced increase"}, {"measurement": "Nox4 expression", "setting": "Nox2; after ketamine treatment, cultures", "result": "did not see changes"}, {"measurement": "Nox2 immunoreactivity, fluorescence quantification", "setting": "Nox2; ketamine 0.5 μM, 24 h, control 100+/−8%", "result": "170+/−15%"}, {"measurement": "parvalbumin immunoreactivity", "setting": "PV-interneurons; ketamine 0.5 μM, 24 h", "result": "reduction"}, {"measurement": "expression of Nox2 and p22phox in membrane preparations of cortical tissue", "setting": "Nox2, Nox4, p22phox", "result": "significant increase"}, {"measurement": "metabolic activities of synaptosomal mitochondria", "setting": "[3]", "result": "not affected"}, {"measurement": "superoxide signals (EPR, DIPPMPO)", "setting": "primary cultures", "result": "rapid increase"}, {"measurement": "levels of other pro-inflammatory cytokines (IL-1, TNF mRNA)", "setting": "IL-6 mRNA", "result": "without affecting"}, {"measurement": "GAD67 in calbindin cells, mean intensity±SD", "setting": "[4]; [6]", "result": "44.2±14.5"}, {"measurement": "GAD67 in calretinin cells, mean intensity+SD", "setting": "[4]; [6]", "result": "44.2±14.5"}, {"measurement": "calretinin, mean intensity+SD", "setting": "[4]; 2-day ketamine, saline 133.6±35.6", "result": "139.4±28.7"}, {"measurement": "calbindin, mean intensity±SD", "setting": "[4]; 2-day ketamine, saline 215.6±32.1", "result": "231.6±25.6"}, {"measurement": "oxidized DHE in brain / PFC", "setting": "[4]; [7]", "result": "widespread increase; also recorded: pronounced increase"}, {"measurement": "parvalbumin and GAD67 immunoreactivity in PV-interneurons of PFC", "setting": "[4]; [7]", "result": "significant reduction; also recorded: pronounced decrease"}, {"measurement": "effects on PV-interneurons in the prefrontal region", "setting": "[5]", "result": "not present"}, {"measurement": "Nox activity in synaptosomes", "setting": "NADPH oxidase (Nox)", "result": "pronounced increase"}]}
{"compound": "CNTO-328: human-mouse chimeric monoclonal antibody (Mab) to IL-6 (Centocor)", "values": [{"measurement": "plasma half-life", "setting": "[2]", "result": "roughly 17 days"}]}
